The text below walks through data of patent publication US20110059909A1, “METHODS FOR TREATING INFLAMMATORY DISORDERS” (priority 2004, published 2011).

In series [1] the test system is rat primary astrocytes. Nature of the series: Assay for NO production (nitrite, Griess reagent) in LPS/IFNγ-stimulated primary astrocytes. The series is classed as cell-based. Conditions: for LPS/IFNγ-induced NO production: primary astrocytes, LPS/IFNγ (1 μg/ml; 10 U/ml), NO at 24 h. How it is done: (§1) Primary astrocyte-enriched cultures were prepared from the whole cortex of one day old Sprague-Dawley rats as described earlier (Pahan et al., 1998b). Briefly, the cortex was rapidly dissected in ice-cold calcium/magnesium free Hanks Balanced Salt Solution (HBSS) (Gibco, Grand Island, N.Y.) at pH 7.4 as described previously (Won et al., 2001). The tissue was then minced, incubated in HBSS containing trypsin (2 mg/ml) for 20 min and washed twice in plating medium containing 10% FBS and 10 μg/ml gentamicin, and then disrupted by triturating through a Pasteur pipette following which cells were seeded in 75-cm^2 culture flasks (Falcon, Franklin, N.J.). After incubation at 37° C. in 5% CO2 for 1 day, the medium was completely changed to the culture medium (DMEM containing 5% FBS and 10 μg/ml gentamicin). The cultures received half exchanges with fresh medium twice a week. After 14-15 days the cells were shaken for at least 24 h on an orbital shaker to remove the microglia and then seeded on multi-well tissue culture dishes. The cells were incubated with serum-free DMEM for 24 h prior to the incubation with drugs.
Cells were cultured in 12-well plastic tissue culture plates. Following appropriate treatment, production of NO was determined by an assay of the culture supernatant for nitrite (Green et al., 1982). Briefly, 100 μl of culture supernatant was allowed to react with 100 μl of Griess reagent. The optical density of the assay samples was measured spectrophotometrically at 570 nm. Nitrite concentrations were calculated from a standard curve derived from the reaction of NaNO2 in fresh media.

A further series has as its system iNOS. Nature of the series: iNOS mRNA (RT-PCR) and protein (immunoblot) in LPS/IFNγ-stimulated primary astrocytes. It is filed as cell-based, rat. To be noted: for LPS/IFNγ-induced iNOS mRNA and protein levels: primary astrocytes, LPS/IFNγ (1 μg/ml; 10 U/ml), mRNA 6 h, protein 24 h. How it is done: as §1
(§2) For iNOS protein, the cells were washed with cold Tris buffered saline (TBS; 20 mM Trizma base, and 137 mM NaCl, pH 7.5), lysed in 1×SDS sample loading buffer (62.5 mM Trizma base, 2% w/v SDS, 10% glycerol), following sonication and centrifugation at 15,000×g for 5 min, the supernatant was used for the iNOS western immunoblot assay. The protein concentration of samples was determined with the detergent compatible protein assay reagent (Bio-Rad Laboratories, CA) using bovine serum albumin (BSA) as the standard. Sample was boiled for 3 min with 0.1 volumes of 10% β-mercaptoethanol and 0.5% bromophenol blue mix. Fifty μg of total cellular protein was resolved by electrophoresis on 8 or 12% polyacrylamide gels, electro-transferred to polyvinylidene difluoride (PVDF) filter and blocked with Tween 20 containing Tris-buffered saline (TBST; 10 mM Trizma base-pH 7.4, 1% Tween 20, and 150 mM NaCl) with 5% skim milk. After incubation with antiserum against iNOS (BD PharMingen, CA), rat GalT-2 (Abjent Inc., CA), H-Ras (Upstate Biotechnology, CA), GFAP (Santa Cruz Biotech, CA), or phospho-specific ERK1/2 (Cell signaling Tech Inc., MA), or pIκ-B (Signal Transduction), in PVDF buffer for 2 h at room temperature, the filters were washed 3 times with TBST buffer and then incubated with horseradish peroxidase conjugated anti-rabbit or mouse IgG for 1 h. The membranes were detected by autoradiography using ECL-plus (Amersham Pharmacia Biotech) after washing with TBST buffer.
5 μg total RNA was treated with 2 U DNAse I (bovine pancreas, Sigma) for 15 min at room temperature in 18 μl volume containing 1×PCR buffer and 2 mM MgCl2. It was then inactivated by incubation with 2 μl of 25 mM EDTA at 65° C. for 15 min. 2 μl of random primers were added and annealed to the RNA according to the manufacturer's protocol. cDNA was synthesized in a 50 μl reaction containing 5 μg of total RNA and 50-100 U reverse transcriptase by incubating the tubes at 42° C. for 60 min. PCR amplification was conducted in 25 μl of reaction mixture with 1.0 μl of cDNA, […] of each primer and under the manufacturer's Taq polymerase conditions (Takara, Takara Shuzo Co. Ltd, Japan). The sequence of primers used for PCR amplification are as follows; iNOS, (Forward-5′ […] 3′, SEQ ID NO:3; Reverse-5′ […] 3′, SEQ ID NO:4), GalT-2 (Forward-5′ tggtacaagctagaggc 3′, SEQ ID NO:5; Reverse-5′ gcatggcacattgaa C-3′, SEQ ID NO:6), GAPDH (Forward-5′ […] 3′, SEQ ID NO:7; Reverse-5′ cttcacgaagttgtcattgagggca3′, SEQ ID NO:8), TNFα (Forward-5′ […] g-3′, SEQ ID NO:9; Reverse-5′[…]-3′, SEQ ID NO:10) and IL-1β (Forward-5′[…]-3′, SEQ ID NO:11; reverse-5′[…]-3′, SEQ ID NO:12).

The subject of series [2] is rat primary astrocytes. Kind of series: BrdU incorporation assay, proliferation of primary astrocytes. The series is classed as cell-based. To be noted: for TNFα-induced astrocyte proliferation: pretreated 0.5 h (AS: 48 h after transfection), TNFα 1 ng/ml 18 h. How it is done:
as §1
Proliferation of primary astrocytes was assayed by using the Cell proliferation ELISA, BrdU colorimetric assay kit (Roche, Germany) according to manufacturer's protocol. Briefly, cells were seeded in 96 well plates in quadruplicate and following overnight serum starvation were stimulated with mitogenic stimulants. 2 h before termination of proliferation assay, BrdU (10 μM) was added to each well following which cells were fixed and levels of incorporated BrdU were assayed by using a conjugated anti-BrdU enzyme. Colorimetric analysis was done by measuring absorbance at 370 nm using a spectramax MAX 190 (Molecular devices) multi-well plate reading spectrophotometer.

For a further series, the system named is GFAP. Nature of the series: GFAP mRNA (real time PCR) and protein (immunoblot) in TNFα-stimulated primary astrocytes. It is filed as cell-based, rat. Conditions: for TNFα-induced GFAP mRNA and protein expression: TNFα 1 ng/ml, mRNA 8 h, protein 18 h. On the procedure: as §2
The subject of the next series is IκB. Nature of the series: Phosphorylated IκB immunoblot of cytoplasmic extract. The series is classed as cell-based, rat. To be noted: LPS/IFNγ. On the procedure:
as §2, with “After incubation with antiserum against iNOS (BD PharMingen, CA), rat GalT-2 (Abjent Inc., CA), H-Ras (Upstate Biotechnology, CA), GFAP (Santa Cruz Biotech, CA), or phospho-specific ERK1/2 (Cell signaling Tech Inc., MA), or pIκ-B (Signal Transduction), in PVDF buffer for 2 h at room temperature, the filters were washed 3 times with TBST buffer and then incubated with horseradish peroxidase conjugated anti-rabbit or mouse IgG for 1 h.” left out

On to “AS GalT-2 oligonucleotides: 20-mer antisense oligonucleotide 5′-CGCTTGAGCGCAGACATCTT-3′, SEQ ID NO:1, against rat lactosylceramide synthase (GalT-2) (antisense CGCTTGAGCGCAGACATCTT; chemistry not given here)”, for which the “LPS/IFNγ-induced NO production” value in the series with rat primary astrocytes [1] was “decreased”. Besides, the “LPS/IFNγ-induced iNOS mRNA and protein levels” value in the series on iNOS is reported as “decreased”. Also, the TNFα-induced astrocyte proliferation result in the series on rat primary astrocytes [2] (BrdU incorporation) is given as “decreased”. In addition, the “TNFα-induced GFAP mRNA and protein expression” value with GFAP is reported as “diminished”.
For the compound Lactosylceramide [LacCer], the “Reversal of PDMP-mediated inhibition of LPS/IFNγ-induced NO production” value in the series with rat primary astrocytes [1] (PDMP 50 μM plus exogenous glycosphingolipid 5 and 10 μM, 0.5 h before LPS/IFNγ) was “blunted”. The “Reversal of GalT-2 AS-mediated inhibition of NO production and iNOS levels” value in the series on rat primary astrocytes [1] (exogenous LacCer, LPS/IFNγ) is “reversed the inhibition”. For the same compound, the “Reversal of NAC- and PDTC-mediated inhibition of LPS/IFNγ-stimulated iNOS gene expression” value with iNOS (NAC 10 mM or PDTC 100 μM, exogenous LacCer) is reported as “not reversed”. The “Reversal of PDMP-mediated inhibition of iNOS gene expression” value with iNOS (PDMP 50 μM plus LacCer 5 and 10 μM, 0.5 h before LPS/IFNγ) was “blunted”. Besides, in the series with iNOS (exogenous LacCer, LPS/IFNγ), the “Effect on PD98059-mediated inhibition of iNOS gene expression” value is listed as “no effect”. For the same compound, in the series with IκB (PDMP plus LacCer), the “Levels of phosphorylated IκB when LacCer was added to PDMP” value is recorded as “increased”. The “Reversal of LY-mediated inhibition of TNFα-induced proliferation” value with rat primary astrocytes [2] (LY 30 μM plus exogenous lipid) is reported as “effectively blunted”. In addition, in the series with rat primary astrocytes [2] (PDMP 25 μM plus exogenous lipid), the “Reversal of PDMP-mediated inhibition of TNFα-induced proliferation” value is “able to bypass”. In the series on rat primary astrocytes [2] (exogenous LacCer), the “Reversal of GalT-2 AS-mediated inhibition of TNFα-induced proliferation” value is “bypassed the inhibition”. In addition, in the series on rat primary astrocytes [2] (exogenous lipid), the “Reversal of DMS-mediated inhibition of TNFα-induced proliferation” value is given as “reversed” and the “Reversal of PD98059-mediated inhibition of TNFα-induced proliferation” value is reported as “could not be reversed”. For the same compound, in the series on rat primary astrocytes [2] (increasing doses (1, 5 and 10 μM for GSL), 18 h, BrdU incorporation), the “Proliferation of astrocytes induced by the substance itself” value is recorded as “induced proliferation”. In addition, in the series with GFAP (PDMP 25 μM plus LacCer 5 μM), the “Reversal of PDMP-mediated inhibition of TNFα-induced GFAP expression” value is reported as “reversed”. In addition, in the series with GFAP (exogenous LacCer), the “Reversal of AS-mediated inhibition of GFAP expression” value was “blunted” and the “Reversal of LY-mediated inhibition of TNFα-mediated GFAP expression” value is recorded as “effectively bypassed”. For the same compound, in the series on GFAP (exogenous LacCer, TNFα), the “Effect on PD98059-mediated inhibition of GFAP expression” value was “no effect”. Also, the “Reversal of DMS-mediated inhibition of TNFα-induced GFAP expression” value in the series on GFAP (exogenous lipid) is on record as “reversed”.
On to `CCCCCCCCCC(=O)NC(CN1CCOCC1)C(O)c1ccccc1.Cl` [PDMP, D-threo-1-Phenyl-2-decanoylamino-3-morpholino-1-propanol.HCl], for which, in the series on rat primary astrocytes [1], the “LPS/IFNγ-induced NO production” value is on record as “dose dependent decrease”. Moreover, in the series on iNOS, the “LPS/IFNγ-induced iNOS mRNA and protein levels” value is on record as “dose dependent decrease”. For the same compound, the “Phosphorylation of IκB” value in the series on IκB (in the presence of PDMP) is recorded as “Decreased”. In the series with rat primary astrocytes [2] (BrdU incorporation), the TNFα-induced astrocyte proliferation entry is “dose dependently inhibited”. Further, the “TNFα-induced GFAP mRNA and protein expression” value with GFAP is listed as “inhibited”.
